From patent publication US20250115597A1, “TYK2 INHIBITORS AND COMPOSITIONS AND METHODS THEREOF” (LYNK PHARMACEUTICALS CO. LTD., priority 2021, published 2025)
Read-outs that look alike come from different tables or passages of the source.

How the values were obtained:
[1] = target: T1, Ba/F3-FL-TYK2-P760L cells (Homo sapiens, UniProt P29597, P760L, cells depend on it); experiment: Anti-proliferative assay, Ba/F3-FL-TYK2-P760L cells (Cell-Titer Glo); format: cell-based; settings: 72 h, read-out: BaF3-FL-T2P760L IC50
T1 construct: BaF3-FL-T2P760L (nM)
In short: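 Ba/F3 cells made IL-3-independent by TEL-fused or full-length mutant JAK-family kinases, seeded at 2000/well and dosed after 24 h with 9 three-fold dilutions topping at 20 μM. Viability after 72 h at 37 °C, 5% CO2 by Cell-Titer Glo ATP luminescence.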

[2] = Microsomal metabolic stability assay; format: in vitro ADME; settings: pH 7.4, 0.5 mg/mL protein, 1 μM compound
Description: Microsomal Metabolic Stability Assay
Microsomes were pre-incubated with test compound or control compounds for 5 min at 37° C. in 100 mM potassium phosphate buffer, pH 7.4, 1.0 mM EDTA. The reaction was initiated by addition of 15 μL of the NADPH regenerating system to 30 μL of each incubation mixture per time point. The final incubation condition was composed of 0.5 mg/mL microsomal protein, 1 μM test article/positive control, 2 mM NADPH. The 0-minute samples were prepared by addition of a 30 μL aliquot of each incubation mixture to 135 μL quench reagent to precipitate proteins. And then a 15 μL aliquot of the NADPH regenerating system was added. At 5, 15, 30 and 45 minutes, the reaction will be stopped by the addition of cold acetonitrile solution containing internal standard. The samples taken at all time points were centrifuged at 5000×g for 15 minutes. 50 μL of supernatant are taken into 96-well assay plates pre-added with 50 μL ultrapure water, and then analyzed by LC/MS/MS.
Concentrations of test articles, control compounds in the samples were determined by using LC/MS/MS method. Plotting of the chromatograms and peak area integrations are carried out by Analyst (AB Sciex).
n the determination of the in vitro elimination constant (ke) of the control compounds, the analyte/internal standard peak area ratios will be converted to percentage remaining (% Remaining) with the following equation: […]
The slope was measured by the natural logarithm of the percentage of the residual compound and time, T1/2 was calculated according to the following formula.

[3] = human liver microsomes, read-out: Human LM Clint
[4] = human liver microsomes, read-out: Human LM T½
[5] = rat liver microsomes, read-out: Rat LM Clint
[6] = rat liver microsomes, read-out: Rat LM T½
[7] = dog liver microsomes, read-out: Dog LM Clint
[8] = dog liver microsomes, read-out: Dog LM T½

T1 sequence (P29597 whole entry P760L): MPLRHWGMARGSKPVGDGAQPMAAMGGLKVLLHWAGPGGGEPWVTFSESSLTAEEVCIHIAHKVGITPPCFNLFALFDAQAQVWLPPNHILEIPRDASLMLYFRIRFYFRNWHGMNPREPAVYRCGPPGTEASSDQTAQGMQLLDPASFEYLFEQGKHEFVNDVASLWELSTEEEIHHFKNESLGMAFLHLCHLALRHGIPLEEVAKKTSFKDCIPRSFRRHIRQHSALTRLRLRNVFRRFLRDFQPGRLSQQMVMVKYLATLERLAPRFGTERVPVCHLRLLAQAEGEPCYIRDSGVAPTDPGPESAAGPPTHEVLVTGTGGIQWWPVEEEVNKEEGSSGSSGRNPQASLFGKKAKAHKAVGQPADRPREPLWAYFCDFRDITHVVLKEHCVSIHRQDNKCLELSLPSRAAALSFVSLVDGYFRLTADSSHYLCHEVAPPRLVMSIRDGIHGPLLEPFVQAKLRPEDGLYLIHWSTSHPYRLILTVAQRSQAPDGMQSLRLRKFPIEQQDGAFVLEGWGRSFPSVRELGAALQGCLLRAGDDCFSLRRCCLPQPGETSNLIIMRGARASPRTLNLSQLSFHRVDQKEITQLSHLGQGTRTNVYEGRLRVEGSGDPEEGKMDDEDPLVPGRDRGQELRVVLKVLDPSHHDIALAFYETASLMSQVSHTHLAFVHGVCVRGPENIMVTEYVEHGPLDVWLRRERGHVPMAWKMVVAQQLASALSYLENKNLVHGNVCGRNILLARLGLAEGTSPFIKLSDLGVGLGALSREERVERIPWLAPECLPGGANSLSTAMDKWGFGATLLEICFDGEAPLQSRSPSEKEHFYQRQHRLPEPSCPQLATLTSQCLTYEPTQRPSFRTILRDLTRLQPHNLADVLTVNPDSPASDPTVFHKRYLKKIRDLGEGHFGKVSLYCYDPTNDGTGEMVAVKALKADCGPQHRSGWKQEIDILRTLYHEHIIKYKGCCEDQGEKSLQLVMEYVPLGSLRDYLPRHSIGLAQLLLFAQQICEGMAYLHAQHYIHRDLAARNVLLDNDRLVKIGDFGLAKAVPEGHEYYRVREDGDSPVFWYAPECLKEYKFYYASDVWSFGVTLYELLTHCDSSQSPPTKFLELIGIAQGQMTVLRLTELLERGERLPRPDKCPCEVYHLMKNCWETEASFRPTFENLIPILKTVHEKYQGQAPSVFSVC

Compound	GI50 [1] [nM]	microsomal CLint at 1 μM [2, 3] [µL/min/mg]	half-life at 1 μM [2, 4] [h]	microsomal CLint at 1 μM [2, 5] [µL/min/mg]	half-life at 1 μM [2, 6] [h]	microsomal CLint at 1 μM [2, 7] [µL/min/mg]	half-life at 1 μM [2, 8] [h]
CNC(=O)c1cnc(NC(=O)C2CC2)cc1Nc1cn(C)c2ccn(C)c(=O)c12 [Example 12, 6-(Cyclopropanecarboxamido)-4-((1,5-dimethyl-4-oxo-4,5-dihydro-1H-pyrrolo[3,2-c]pyridin-3-yl)amino)-N-methylnicotinamide]	416	25.8	0.895	16.4	1.41		
[2H]C([2H])([2H])NC(=O)c1cnc(NC(=O)C2CC2)cc1Nc1cn(C)c2cnn(C(C)C(F)(F)F)c(=O)c12 (stereo not drawn) [Example 200, 6-(Cyclopropanecarboxamido)-N-(methyl-d3)-4-((1-methyl-4-oxo-5-(1,1,1-trifluoropropan-2-yl)-4,5-dihydro-1H-pyrrolo[2,3-d]pyridazin-3-yl)amino)nicotinamide]	648	< 11.5	> 2				
CCn1ccc2c(c(Nc3cc(Nc4ncc(F)cc4F)ncc3C(=O)NC)cn2C)c1=O [Example 98, 6-((3,5-Difluoropyridin-2-yl)amino)-4-((5-ethyl-1-methyl-4-oxo-4,5-dihydro-1H-pyrrolo[3,2-c]pyridin-3-yl)amino)-N-methylnicotinamide]	488	32.6	0.709	114	0.202	37.3	0.62
[2H]C([2H])([2H])NC(=O)c1cnc(NC(=O)C2CC2)cc1Nc1csc2cnn(CC3CC3(F)F)c(=O)c12 (stereo not drawn) [Example 191, 6-(Cyclopropanecarboxamido)-4-((5-((2,2-difluorocyclopropyl)methyl)-4-oxo-4,5-dihydrothieno[2,3-d]pyridazin-3-yl)amino)-N-(methyl-d3)nicotinamide]	1270	< 11.5	> 2	13.1	1.77	< 11.5	> 2
[2H]C([2H])([2H])NC(=O)c1cnc(NC(=O)C2CC2)cc1Nc1csc2cnn(C(C)C)c(=O)c12 [Example 184, 6-(Cyclopropanecarboxamido)-4-((5-isopropyl-4-oxo-4,5-dihydrothieno[2,3-d]pyridazin-3-yl)amino)-N-(methyl-d3)nicotinamide]	189	< 11.5	> 2	23.1	1	< 11.5	> 2
[2H]C([2H])([2H])NC(=O)c1nnc2cc1Nc1cc(cc(-c3ccn(C)n3)c1OC)COCc1nc(ccc1F)N2 [Example 74, 18-Fluoro-10-methoxy-N-(methyl-d3)-11-(1-methyl-1H-pyrazol-3-yl)-15-oxa-2,4,5,8,21-pentaazatetracyclo[15.3.1.1^{3,7}.1^{9,13}]tricosa-1(20),3,5,7(23),9(22),10,12,17(21),18-nonaene-6-carboxamide]	93.5	17.5	1.32	161	0.143	108	0.215
[2H]C([2H])([2H])NC(=O)c1nnc2cc1Nc1cc(cc(-c3ncn(C4CC4)n3)c1OC)COCc1nc(ccc1F)N2 [Example 82, 11-(1-Cyclopropyl-1H-1,2,4-triazol-3-yl)-18-fluoro-10-methoxy-N-(methyl-d3)-15-oxa-2,4,5,8,21-pentaazatetracyclo[15.3.1.1^{3,7}.1^{9,13}]tricosa-1(20),3,5,7(23),9(22),10,12,17(21),18-nonaene-6-carboxamide]	64.3	< 11.5	> 2	20.1	1.15	17.8	1.3
[2H]C([2H])([2H])NC(=O)c1cnc(Nc2ccc(F)cn2)cc1Nc1ccc2cnn(C([2H])([2H])[2H])c2c1OC [Example 141, 6-((5-Fluoropyridin-2-yl)amino)-4-((7-methoxy-1-(methyl-d3)-1H-indazol-6-yl)amino)-N-(methyl-d3)nicotinamide]	29.1	76	0.304	46.8	0.494	93.8	0.246
CNC(=O)c1cnc(Nc2ccc(F)cn2)cc1Nc1cn(C)c2ccn(C)c(=O)c12 [Example 11, 4-((1,5-Dimethyl-4-oxo-4,5-dihydro-1H-pyrrolo[3,2-c]pyridin-3-yl)amino)-6-((5-fluoropyridin-2-yl)amino)-N-methylnicotinamide]	124	74	0.312	30.6	0.755		
[2H]C([2H])([2H])NC(=O)c1nnc2cc1Nc1cc(cc(-n3cnc(C)n3)c1OC)COCc1nc(ccc1F)N2 [Example 75, 18-Fluoro-10-methoxy-N-(methyl-d3)-11-(3-methyl-1H-1,2,4-triazol-1-yl)-15-oxa-2,4,5,8,21-pentaazatetracyclo[15.3.1.1^{3,7}.1^{9,13}]tricosa-1(20),3,5,7(23),9(22),10,12,17(21),18-nonaene-6-carboxamide]	108	21.8	1.06	22.6	1.02	37.7	0.613
[2H]C([2H])([2H])NC(=O)c1cnc2cc1Nc1cc(cc(-c3ncn(C)n3)c1OC)COCc1cc(C(F)(F)F)cc(n1)N2 [Example 69, 10-Methoxy-N-(methyl-d3)-11-(1-methyl-1H-1,2,4-triazol-3-yl)-19-(trifluoromethyl)-15-oxa-2,4,8,21-tetraazatetracyclo[15.3.1.1^{3,7}.1^{9,13}]tricosa-1(21),3,5,7(23),9(22),10,12,17,19-nonaene-6-carboxamide]	79.9		> 2	3.32	6.97	1.92	12
[2H]C([2H])([2H])NC(=O)c1cnc(Nc2ccc(F)cn2)cc1Nc1ccc2cnn(CC)c2c1OC [Example 42, 4-((1-Ethyl-7-methoxy-1H-indazol-6-yl)amino)-6-((5-fluoropyridin-2-yl)amino)-N-(methyl-d3)nicotinamide]	38.8	11.9	1.95	43.9	0.526	117	0.198
[2H]C([2H])([2H])NC(=O)c1nnc2cc1Nc1cc(cc(-c3ncn(C)n3)c1OC)CN(C)Cc1nc(ccc1F)N2 [Example 72, 18-Fluoro-10-methoxy-N-(methyl-d3)-15-methyl-11-(1-methyl-1H-1,2,4-triazol-3-yl)-2,4,5,8,15,21-hexaazatetracyclo[15.3.1.1^{3,7}.1^{9,13}]tricosa-1(20),3,5,7(23),9(22),10,12,17(21),18-nonaene-6-carboxamide]	249	16.9	1.37	87	0.266	16.2	1.43
[2H]C([2H])([2H])NC(=O)c1cnc(NC(=O)C2CC2)cc1Nc1csc2cnn(CC(F)(F)F)c(=O)c12 [Example 189, 6-(Cyclopropanecarboxamido)-N-(methyl-d3)-4-((4-oxo-5-(2,2,2-trifluoroethyl)-4,5-dihydrothieno[2,3-d]pyridazin-3-yl)amino)nicotinamide]	247	6.2	3.73	26.1	0.884	1.15	20.1
[2H]C([2H])([2H])NC(=O)c1cnc(NC(=O)C2CC2)cc1Nc1csc2cnn(C(C)C(F)(F)F)c(=O)c12 (stereo not drawn) [Example 185, 6-(Cyclopropanecarboxamido)-N-(methyl-d3)-4-((4-oxo-5-(1,1,1-trifluoropropan-2-yl)-4,5-dihydrothieno[2,3-d]pyridazin-3-yl)amino)nicotinamide]	428	< 11.5	> 2	< 11.5	> 2	< 11.5	> 2
